In patent US11059794B2, “Heterocyclic compounds useful as dual ATX/CA inhibitors” (Hoffmann-La Roche Inc., priority 2017, dated 2021) one finds IC50 data, which are given here for eight compounds.

In test [1] the target is ATX (human His-tagged) (Homo sapiens (Human), UniProt Q13822). As to the kind of experiment: Human ATX enzyme inhibition assay (fluorescence quenching, MR121 substrate). The conditions noted are these: 30 nM ATX, 1 μM MR121 substrate, 30° C. In kind it is biochemical.
Test [2] deals with Human carbonic anhydrase II (hCA-II) (Homo sapiens (Human), UniProt P00918). As to the kind of experiment: Human carbonic anhydrase-II inhibition assay (absorbance, 4-nitrophenyl acetate substrate). In kind it is biochemical. Conditions: 8 nM hCA II, 2.5 mM 4-NPA, absorbance 340 nm, 1 hour room temperature; read-out: CA-II IC50.

For the compound `Cc1nnn(Cc2cc(C(F)(F)F)ccc2CCC(=O)N2CCC(CC[S+]([O-])c3ccc(S(N)(=O)=O)c(F)c3F)CC2)n1` (stereo not shown) [Example 6.43, 2,3-difluoro-4-[2-[1-[3-[2-[(5-methyltetrazol-2-yl)methyl]-4-(trifluoromethyl)phenyl]propanoyl]piperidin-4-yl]ethylsulfinyl]benzenesulfonamide], in test [1], the IC50 amounted to 6 nM. As to `NS(=O)(=O)c1ccc(CN2CCN(C(=O)c3cc(OCC4CCOCC4)nc(C4CC4)c3)CC2)c(F)c1` [Example 2.02, 4-[[4-[2-cyclopropyl-6-(oxan-4-ylmethoxy)pyridine-4-carbonyl]piperazin-1-yl]methyl]-3-fluorobenzenesulfonamide], the IC50 in test [1] turned out to be 7 nM; in test [2] it was 15.5 nM. As for `Cc1nnn(Cc2cc(OC(F)F)ccc2CCC(=O)N2CCC(CC[S+]([O-])c3ncc(S(N)(=O)=O)s3)CC2)n1` (stereo not shown) [Example 6.44, 2-[2-[1-[3-[4-(difluoromethoxy)-2-[(5-methyltetrazol-2-yl)methyl]phenyl]propanoyl]piperidin-4-yl]ethylsulfinyl]-1,3-thiazole-5-sulfonamide], in test [1], the IC50 came to 7 nM. Same read-out and setting: the figure for `Cc1nnn(Cc2cc(Cl)cnc2COC(=O)N2CCC(S(=O)(=O)c3ccc(S(N)(=O)=O)cc3F)CC2)n1` [Example 1.03, [5-chloro-3-[(5-methyltetrazol-2-yl)methyl]pyridin-2-yl]methyl 4-(2-fluoro-4-sulfamoylphenyl)sulfonylpiperidine-1-carboxylate] is 73 nM; for `Cc1nnn(Cc2cc(C(F)(F)F)ccc2CCC(=O)N2CCN(Cc3ccc(S(N)(=O)=O)cc3)CC2)n1` [Example 9.00, 4-[[4-[3-[2-[(5-Methyltetrazol-2-yl)methyl]-4-(trifluoromethyl)phenyl]propanoyl]piperazin-1-yl]methyl]benzenesulfonamide] it is 27 nM. As to `Cc1nnn(Cc2cc(C(F)(F)F)ccc2CCC(=O)N2CCC(CC[S+]([O-])c3ncc(S(N)(=O)=O)s3)CC2)n1` (stereo not shown) [Example 6.06, 2-[2-[1-[3-[2-[(5-methyltetrazol-2-yl)methyl]-4-(trifluoromethyl)phenyl]propanoyl]piperidin-4-yl]ethylsulfinyl]-1,3-thiazole-5-sulfonamide], the IC50 in test [1] came to 4 nM; in test [2], 14 nM. `Cc1nnn(Cc2cc(C(F)(F)F)ccc2COC(=O)N2CCC(S(=O)(=O)c3ccc(S(N)(=O)=O)cc3F)CC2)n1` [Example 1.04, [2-[(5-methyltetrazol-2-yl)methyl]-4-(trifluoromethyl)phenyl]methyl 4-(2-fluoro-4-sulfamoylphenyl)sulfonylpiperidine-1-carboxylate]: in test [1], the IC50 is 8 nM.

The compound `Cc1nnn(Cc2cc(OC(F)F)ccc2CCC(=O)N2CCC(CC[S+]([O-])c3ccc(S(N)(=O)=O)c(F)c3F)CC2)n1` (stereo not shown) [Example 6.42, 4-[2-[1-[3-[4-(difluoromethoxy)-2-[(5-methyltetrazol-2-yl)methyl]phenyl]propanoyl]piperidin-4-yl]ethylsulfinyl]-2,3-difluorobenzenesulfonamide] had a half-inhibitory concentration (IC50) in test [1] of 3 nM.
